Data published in doi:10.1101/586255v1 (biorxiv, 2019).
Where two headings read alike, the source gives them in different places.

How the values were obtained:
SaSerRS [1] = target: T1, SaSerRS (Staphylococcus aureus, UniProt P95689); test: continuous coupled spectrophotometric assay of adenylate formation; format: biochemical
EcSerRS [2] = target: T2, EcSerRS (Escherichia coli, UniProt P0A8L1); test: as above; format: biochemical
HsSerRS [3] = target: T3, HsSerRS (Homo sapiens, UniProt P49591); format: biochemical
EcSerRS [4] = target: T2, EcSerRS; test: biochemical
SaSerRS [5] = target: T1, SaSerRS; test: biochemical
HsSerRS [6] = target: T3, HsSerRS; test: biochemical
[7] = pH 7.6, 37 °C, 10 mM MgCl2, 10% DMSO

T1 sequence (P95689 whole entry): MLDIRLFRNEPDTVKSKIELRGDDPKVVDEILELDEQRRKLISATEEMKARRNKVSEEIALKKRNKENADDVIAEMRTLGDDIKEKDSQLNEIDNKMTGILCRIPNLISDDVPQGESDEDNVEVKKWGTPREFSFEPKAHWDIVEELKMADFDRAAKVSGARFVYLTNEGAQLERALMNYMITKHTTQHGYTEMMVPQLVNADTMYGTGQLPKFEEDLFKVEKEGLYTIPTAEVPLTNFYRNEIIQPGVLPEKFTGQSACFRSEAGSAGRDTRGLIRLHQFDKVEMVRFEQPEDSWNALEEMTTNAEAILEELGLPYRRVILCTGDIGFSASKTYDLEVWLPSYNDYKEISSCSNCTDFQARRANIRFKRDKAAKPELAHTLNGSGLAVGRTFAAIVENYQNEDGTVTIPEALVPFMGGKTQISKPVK
T3 sequence (P49591 whole entry, looked up): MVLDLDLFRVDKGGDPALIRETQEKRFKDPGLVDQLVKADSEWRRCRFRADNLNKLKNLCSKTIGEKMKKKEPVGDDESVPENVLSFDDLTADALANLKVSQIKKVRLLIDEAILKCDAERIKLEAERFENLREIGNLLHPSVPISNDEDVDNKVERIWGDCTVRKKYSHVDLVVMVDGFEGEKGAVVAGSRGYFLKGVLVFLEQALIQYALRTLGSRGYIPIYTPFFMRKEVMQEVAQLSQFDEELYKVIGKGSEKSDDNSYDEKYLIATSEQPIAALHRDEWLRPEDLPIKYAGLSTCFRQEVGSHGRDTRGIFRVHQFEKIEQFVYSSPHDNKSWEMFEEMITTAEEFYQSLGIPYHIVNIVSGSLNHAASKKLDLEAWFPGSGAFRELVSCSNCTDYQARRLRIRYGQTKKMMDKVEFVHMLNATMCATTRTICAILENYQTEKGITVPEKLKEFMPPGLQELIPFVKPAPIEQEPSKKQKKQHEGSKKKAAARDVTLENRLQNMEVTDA
T2 sequence (P0A8L1 whole entry): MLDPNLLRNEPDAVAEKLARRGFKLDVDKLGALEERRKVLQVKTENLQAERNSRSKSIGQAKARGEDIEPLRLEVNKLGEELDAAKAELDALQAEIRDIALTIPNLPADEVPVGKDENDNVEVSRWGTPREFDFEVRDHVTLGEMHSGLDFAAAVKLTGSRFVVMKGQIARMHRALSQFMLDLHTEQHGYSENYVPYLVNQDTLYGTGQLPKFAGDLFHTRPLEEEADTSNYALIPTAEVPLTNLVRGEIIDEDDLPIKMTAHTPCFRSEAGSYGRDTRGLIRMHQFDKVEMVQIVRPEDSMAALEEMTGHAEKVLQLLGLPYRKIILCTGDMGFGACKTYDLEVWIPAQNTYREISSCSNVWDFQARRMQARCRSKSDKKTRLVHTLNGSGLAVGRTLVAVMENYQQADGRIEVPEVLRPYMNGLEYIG

Structure (SMILES) | IC50 (EcSerRS [2]; [7]) | IC50 (SaSerRS [1]; [7]) | other results
Nc1ncnc2c1ncn2[C@@H]1O[C@H](COS(=O)(=O)NC(=O)[C@@H](N)CO)[C@@H](O)[C@H]1O [compound 1, SerSA] | 0.21 ± 0.03 µM |  | IC50 (SaSerRS [1]; pH 7.6, 37 °C, 10 mM MgCl2, 10% DMSO, error as printed is larger than the value): 0.23 ± 0.49 µM; IC50 (HsSerRS [3]): 2.17 ± 0.21 µM
Nc1nc(Cl)nc2c1ncn2[C@@H]1O[C@H](COS(=O)(=O)NC(=O)[C@@H](N)CO)[C@@H](O)[C@H]1O [compound 2] | 0.45 ± 0.05 µM | 0.26 ± 0.03 µM | 
Nc1nc(I)nc2c1ncn2[C@@H]1O[C@H](COS(=O)(=O)NC(=O)[C@@H](N)CO)[C@@H](O)[C@H]1O [compound 3] | 1.36 ± 0.12 µM | 0.38 ± 0.04 µM | 
Nc1nc(-c2ccccc2)nc2c1ncn2[C@@H]1O[C@H](COS(=O)(=O)NC(=O)[C@@H](N)CO)[C@@H](O)[C@H]1O [compound 4] | 17.7 ± 1.42 µM | 52.7 ± 4.81 µM | 
C/C=C/c1nc(N)c2ncn([C@@H]3O[C@H](COS(=O)(=O)NC(=O)[C@@H](N)CO)[C@@H](O)[C@H]3O)c2n1 [compound 5] | 9.38 ± 0.7 µM | 3.46 ± 0.47 µM | 
Nc1nc(-c2ccco2)nc2c1ncn2[C@@H]1O[C@H](COS(=O)(=O)NC(=O)[C@@H](N)CO)[C@@H](O)[C@H]1O [compound 6] | 36.2 ± 2.41 µM | 32.4 ± 3.56 µM | 
Nc1nc(-c2ccsc2)nc2c1ncn2[C@@H]1O[C@H](COS(=O)(=O)NC(=O)[C@@H](N)CO)[C@@H](O)[C@H]1O [compound 7] | 1.44 ± 0.09 µM | 1.24 ± 0.12 µM | 
Nc1nc(-c2cccnc2)nc2c1ncn2[C@@H]1O[C@H](COS(=O)(=O)NC(=O)[C@@H](N)CO)[C@@H](O)[C@H]1O [compound 8] | 6.65 ± 0.64 µM | 6.34 ± 0.71 µM | 
C[C@H](N)C(=O)NS(=O)(=O)OC[C@H]1O[C@@H](n2cnc3c(N)ncnc32)[C@H](O)[C@@H]1O [compound 9, AlaSA] |  |  | IC50 (EcSerRS [4]): > 1000 µM; IC50 (SaSerRS [5]): > 1000 µM; IC50 (HsSerRS [6]): > 1000 µM
C[C@@H](O)[C@H](N)C(=O)NS(=O)(=O)OC[C@H]1O[C@@H](n2cnc3c(N)ncnc32)[C@H](O)[C@@H]1O [compound 10, ThrSA] |  |  | IC50 (SaSerRS [1]): 231 µM; IC50 (EcSerRS [2]): 285 µM; IC50 (HsSerRS [6]): > 1000 µM
